Measured values published in US20170273917A1, “NMDA RECEPTOR ANTAGONISTS FOR TREATING GAUCHER DISEASE” (Yeda Research and Development Co. Ltd., priority 2014, published 2017).

Assays:
Format in all cases: in vivo, mouse
[1] = tested on: GlcCer, GlcSo, GalCer, GalSo levels in the brain; test: Sphingolipid analysis (LC-ESI-MS/MS) of brains of treated mice; details: P18
Procedure: Sphingolipid analysis—LC-ESI-MS/MS was performed using an ABI 4000 quadrupole-linear ion trap mass spectrometer as previously described (Farfel-Becker et al. Hum Mol Genet. 2014; 23(4):843-54). The sphingolipid internal standards were obtained from Avanti Polar Lipids (Alabaster, Ala., USA).
In the next step, the consequences of GBA1 inhibition, GlcCer accumulation, was analyzed. As expected, CBE-treated mice presented higher levels of GlcCer in the brain in comparison to the controls. The average elevation in GlcCer levels in CBE-treated brains was 3.7-fold compared to PBS-treated mice (FIG. 3C). C18, the most abundant GlcCer species in the brain, was the main GlcCer species elevated (not shown). Importantly, there was no correlation between the levels of GlcCer in the brain and life spans either in the PBS(R^2=0.1441, data not shown) or CBE conditions (R^2=0.0569, FIG. 3C). There was also no correlation between the change in GlcCer levels in each strain and the life spans (R^2=0.0311, data not shown). In addition, no correlation was found between each individual GlcCer subspecies (C14, C16, C18:1, C18, C20, C22, C24:1, C24, C26:1, and C26) and life spans under PBS and CBE conditions (data not shown).
Glucosylsphingosine (GlcSo) is another lipid known to be elevated in GD and it has been proposed as a GD biomarker (Rolfs et al. PLoS One. 2013 Nov. 20; 8(11):e79732). An average elevation of ˜36-fold in GlcSo levels was found in the CBE-treated brains as compared to the controls (FIG. 3D). The potential correlation between GlcSo levels and the life spans of mice was explored—no correlation was found either under PBS(R^2=0.068, data not shown), or in the CBE-treated brains (R^2=0.0013, FIG. 3D). Similarly to the other lipids, there was no correlation between the change in GlcSo levels and mice life spans (R^2=0.0775, data not shown).
In addition, GalCer and GalSo levels were analyzed in the brains of the treated mice (FIGS. 3E-3F).

[2] = tested on: motor coordination of CBE-treated mice; test: Locomotor testing by the hanging wire test; details: short living CBE-treated strains; weekly from P21 for 2 months
Excerpt: Locomotor testing—Locomotor coordination was weekly evaluated in the treated strains by the hanging wire test, a validated test for LSD mouse models (Alvarez et al. 2008). Briefly, the mouse was placed with forepaws at a center of a horizontal bar (3 mm diameter; 35 mm long).
To further characterize the effect of CBE treatment on the different strains, motor behavior was followed weekly using the hanging wire test, starting at postnatal day 21 for a period of 2 months. The hanging wire test evaluates coordination and locomotor function, wherein a high score means better coordination. […] Of note, strains PWD/PhJ and WSB/EiJ were excluded in the motor behavior analysis due to their wild behavior.

Grin2b = test: Cortical Grin2b mRNA levels by qPCR; details: 10 days CBE vs PBS; short living (A/J, C57BL6/JolaHsd) and long living (NZW, FVB) strains
Procedure: RNA extraction and quantitative PCR Following treatment, mice were sacrificed and their brains removed, placed on a Young Mouse Brain Slicer Matrix (BSMYS001-1, Zivic instruments, Pittsburgh, Pa., USA) and cut into 1 mm coronal sections. The cerebral cortex was separated using a spatula and snap-frozen in liquid N2 and stored at −80° C. Total RNA was isolated using the RNeasy mini kit (Qiagen GmbH, Hilden, Germany) according to manufacturer's instructions. Quantitative polymerase chain reaction (Q-PCR) was performed using PerfeCTa SYBR Green FastMix (Quanta BioSciences, Gaithersburg, Md., USA) and an ABI Prism 7300 Sequence Detection System (Applied Biosystems, Foster City, Calif., USA). […] Fold-change in mRNA levels was calculated using the comparative cycle threshold method using TATA box binding protein (TBP) for normalization. P-values were calculated using a two-tailed, two-independent sample Student's t-test. […]
Based on the predictive studies described above, the involvement of Grin2b in the pathogenesis of neuropathic GD was evaluated. […] Since non-coding SNPs can regulate the expression of quantitative trait locus (QTL), the mRNA levels of Grin2b were determined by qPCR. […] The transcript levels was determined in 2 short living (A/J and C57BL6/JolaHsd) and 2 long living strains (NZW and FVB) 10 days following PBS or CBE treatment.

`O[C@H]1[C@H](O)[C@@H](O)[C@@H]2O[C@@H]2[C@@H]1O` [CBE, Conduritol-β-epoxide] was tested, and the “average elevation in GlcCer levels in the brain” value ([1]; CBE-treated brains compared to PBS-treated mice) was 3.7 fold, the “average elevation in GlcSo levels in the brain” value ([1]; CBE-treated brains compared to controls) was roughly 36 fold and the “GalCer levels in the brain” value ([1]; CBE-treated mice vs PBS) was “no elevation”. For the same compound, the “GalSo levels in the brain” value ([1]; CBE-treated mice vs PBS) was “no elevation”, the “motor behavior (hanging wire test)” value [2] was “poor motor behaviors starting at very early time points” and the “Grin2b expression levels (cortical mRNA, qPCR)” value (Grin2b) was “increased only in the short-living strains”.
